Laboratory results reported in ChEMBL document CHEMBL1201862, “PubChem BioAssay data set” (2004).
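Assay format: 96-well plates, 48-hour exposure. GI50 marks 50% less growth.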 The source made the active and inactive calls. Rule as the data show it: active = GI50 up to about 1.1 µM and inactive = higher.

Columns and labels:
Assay in all cases: NCI-60 cell line screen, 48 h
Malme-3M = tested on: Malme-3M
M14 = tested on: M14
OVCAR-3 = tested on: OVCAR-3
NCI/ADR-RES = tested on: NCI/ADR-RES
A549 = tested on: A549
SK-OV-3 = tested on: SK-OV-3
SW-620 = tested on: SW-620
RPMI-8226 = tested on: RPMI-8226
SK-MEL-5 = tested on: SK-MEL-5
HL-60 = tested on: HL-60
KM12 = tested on: KM12
MDA-N = tested on: MDA-N
HOP-62 = tested on: HOP-62
DU-145 = tested on: DU-145
UACC-62 = tested on: UACC-62
SK-MEL-2 = tested on: SK-MEL-2
SF-539 = tested on: SF-539
UACC-257 = tested on: UACC-257
OVCAR-5 = tested on: OVCAR-5
OVCAR-8 = tested on: OVCAR-8

SMILES	GI50 (Malme-3M)	GI50 (M14)	GI50 (OVCAR-3)	GI50 (NCI/ADR-RES)	GI50 (A549)	GI50 (SK-OV-3)	GI50 (SW-620)	GI50 (RPMI-8226)	GI50 (SK-MEL-5)	GI50 (HL-60)	GI50 (KM12)	GI50 (MDA-N)	GI50 (HOP-62)	GI50 (DU-145)	GI50 (UACC-62)	GI50 (SK-MEL-2)	GI50 (SF-539)	GI50 (UACC-257)	GI50 (OVCAR-5)	GI50 (OVCAR-8)
N=C(N)N/N=C/c1c(-c2ccc([N+](=O)[O-])cc2)nc2n1CCS2	17.9 µM (inactive)	14.5 µM (inactive)	14.8 µM (inactive)	> 72.4 µM (inactive)	17 µM (inactive)	20.3 µM (inactive)	2.53 µM (inactive)	38 µM (inactive)	16.1 µM (inactive)	8.36 µM (inactive)	4.84 µM (inactive)	11.9 µM (inactive)	20.5 µM (inactive)	14.6 µM (inactive)	16.7 µM (inactive)	7.35 µM (inactive)	16.3 µM (inactive)	18.5 µM (inactive)	14.4 µM (inactive)	11 µM (inactive)
COC(=O)CCC(=O)NC1=C(Nc2ccc(OC)cc2)C(=O)c2ccccc2C1=O	2.05 µM (inactive)	7.26 µM (inactive)	3.18 µM (inactive)	16.3 µM (inactive)	14 µM (inactive)	23.7 µM (inactive)	15.3 µM (inactive)	15.7 µM (inactive)	1.83 µM (inactive)	10.8 µM (inactive)	14.3 µM (inactive)	1.81 µM (inactive)	18.7 µM (inactive)	14 µM (inactive)	3.16 µM (inactive)	6.3 µM (inactive)	14.2 µM (inactive)	4.61 µM (inactive)	17.1 µM (inactive)	14.1 µM (inactive)
O=C1CCSc2nc(-c3ccc4c(c3)OCO4)nn21	> 10 µM (inactive)	> 10 µM (inactive)	> 10 µM (inactive)	> 10 µM (inactive)	> 10 µM (inactive)	> 10 µM (inactive)	> 10 µM (inactive)	> 10 µM (inactive)	> 10 µM (inactive)	> 10 µM (inactive)	> 10 µM (inactive)	> 10 µM (inactive)	> 10 µM (inactive)	> 10 µM (inactive)	> 10 µM (inactive)	> 10 µM (inactive)	> 10 µM (inactive)	> 10 µM (inactive)	> 10 µM (inactive)	> 10 µM (inactive)
C=CCCCCCCCCCOC1C=CC(OC(C)=O)C(COC(C)=O)O1 (stereo not given)	35.2 µM (inactive)	30.1 µM (inactive)	44.4 µM (inactive)	41.4 µM (inactive)	55.7 µM (inactive)	> 100 µM (inactive)	57 µM (inactive)	13.2 µM (inactive)	31.6 µM (inactive)	24.2 µM (inactive)	26.9 µM (inactive)	44.3 µM (inactive)	83.8 µM (inactive)	> 100 µM (inactive)	46.8 µM (inactive)	38.3 µM (inactive)	> 100 µM (inactive)	29 µM (inactive)	> 100 µM (inactive)	18.1 µM (inactive)
CCCC(=O)Nc1cn(COC)c(C(=O)N2C[C@@H]3C[C@]34C2=CC(=O)c2[nH]cc(C)c24)n1	1.72 µM (inactive)	13.4 µM (inactive)	10.3 µM (inactive)	7.87 µM (inactive)	10.8 µM (inactive)	11.2 µM (inactive)	5.58 µM (inactive)	10.9 µM (inactive)	4.36 µM (inactive)	1.07 µM (active)	> 5 µM (inactive)	9.29 µM (inactive)	13.6 µM (inactive)	1.53 µM (inactive)	7.62 µM (inactive)	8.47 µM (inactive)	11.7 µM (inactive)	8.13 µM (inactive)	28.7 µM (inactive)	4.23 µM (inactive)
OCCCSCCO	> 100 µM (inactive)	> 100 µM (inactive)	> 100 µM (inactive)	> 100 µM (inactive)	> 100 µM (inactive)	> 100 µM (inactive)	> 100 µM (inactive)	> 100 µM (inactive)	> 100 µM (inactive)	> 100 µM (inactive)	> 100 µM (inactive)	> 100 µM (inactive)	> 100 µM (inactive)	> 100 µM (inactive)	> 100 µM (inactive)	> 100 µM (inactive)	> 100 µM (inactive)	> 100 µM (inactive)	> 100 µM (inactive)	> 100 µM (inactive)
